This note sets out measurements from patent US20120252853A1, “Positive allosteric modulators of nicotinic acetylcholine receptor” (H. Lundbeck A/S, priority 2011, published 2012).

Test [1] deals with α7 nACh receptors expressed in Xenopus oocytes. The experiment in a line: α7 NNR oocyte assay (electrophysiological recordings). It is filed as cell-based, human or rat. Conditions: tested subsequently in the oocyte assay. As for the experimental part: Expression of α7 nACh Receptors in Xenopus oocytes.
Oocytes were surgically removed from mature female Xenepus laevis anaesthetized in 0.4% MS-222 for 10-15 min. The oocytes were then digested at room temperature for 2-3 hours with 0.5 mg/ml collagenase (type IA Sigma-Aldrich) in OR2 buffer (82.5 mM NaCl, 2.0 mM KCl, 1.0 mM MgCl2 and 5.0 mM HEPES, pH 7.6). Oocytes avoid of the follicle layer were selected and incubated for 24 hours in Modified Barth's Saline buffer (88 mM NaCl, 1 mM […], 15 mM HEPES, 2.4 mM NaHCO3, 0.41 mM CaCl2, 0.82 mM MgSO4, 0.3 mM Ca(NO3)2) supplemented with 2 mM sodium pyruvate, 0.1 μg/l penicillin and 0.1 μg/l streptomycin. Stage 1V oocytes were identified and injected with 4.2-48 nl of nuclease free water containing 0.1-1.2 ng of cRNA coding for human α7 nACh receptors or 3.0-32 ng of cRNA coding for rat α7 nACh receptors and incubated at 18° C. for 1-10 days when they were used for electrophysiological recordings.
Electrophysiological Recordings of α7 nACh Receptors Expressed in Oocytes.
Oocytes were used for electrophysiological recordings 1-10 days after injection. Oocytes were placed in a 1 ml bath and perfused with Ringer buffer (115 mM NaCl, 2.5 mM KCl, 10 mM HEPES, 1.8 mM CaCl2, 0.1 mM MgCl2, pH 7.5). Cells were impaled with agar plugged 0.2-1 MΩ electrodes containing 3 M KCl and voltage clamped at −90 mV by a GeneClamp 500B amplifier. The experiments were performed at room temperature. Oocytes were continuously perfused with Ringer buffer and the drugs were applied in the perfusate. ACh (30 μM) applied for 30 sec were used as the standard agonist for activation of the α7 nACh receptors. In the standard screening set-up the new test compound (10 μM or 30 μM) were applied for 1 min of pre-application allowing for evaluation of agonistic activity followed by 30 sec of co-application with ACh (30 μM) allowing for evaluation of PAM activity. […] The drug induced effects on both the peak response and the total charge (AUC) response were calculated thus giving the effect of drug induced PAM activity as fold modulation of the control response. […]

The target in test [2] is human α7 receptor (Homo sapiens, UniProt P36544). As to the kind of experiment: α7 NNR flux assay (FDSS Ca assay). It is filed as cell-based. Conditions: positive allosteric modulation; rat GH4C1 cell line stably expressing human α7; acetylcholine 20 μM; % modulation relative to PNU-120596 set to 100%. In outline: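 GH4C1 rat cells stably expressing human α7, loaded with Calcium-4 dye plus 2.5 mM probenecid in HBSS/20 mM HEPES pH 7.4, 3 mM CaCl2. Compounds (0.039–20 μM final) preincubated ~95 s before 20 μM acetylcholine (~EC100); Ex480/Em540 fluorescence on FDSS. Values are % modulation, with 3 μM PNU-120596 set to 100%.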
Sequence of human α7 receptor (P36544 23-502): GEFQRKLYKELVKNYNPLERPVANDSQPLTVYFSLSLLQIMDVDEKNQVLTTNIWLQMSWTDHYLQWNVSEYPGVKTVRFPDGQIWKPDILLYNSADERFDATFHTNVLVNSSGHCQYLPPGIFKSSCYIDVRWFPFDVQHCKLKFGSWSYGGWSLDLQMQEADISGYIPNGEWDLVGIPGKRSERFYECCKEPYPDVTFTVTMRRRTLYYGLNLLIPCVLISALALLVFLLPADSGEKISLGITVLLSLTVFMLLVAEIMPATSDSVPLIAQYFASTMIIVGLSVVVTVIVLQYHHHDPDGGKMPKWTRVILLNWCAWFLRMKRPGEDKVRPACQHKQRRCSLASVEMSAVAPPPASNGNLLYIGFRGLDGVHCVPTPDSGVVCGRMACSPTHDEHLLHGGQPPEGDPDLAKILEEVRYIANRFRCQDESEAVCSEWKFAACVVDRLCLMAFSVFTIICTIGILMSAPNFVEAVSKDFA

In test [3] the target is T1, human KCNQ2 (Homo sapiens, UniProt O43526).
T1 construct: expressed in transfected cells
As to the kind of experiment: 86Rb flux in KCNQ2 expressing cells. In kind it is cell-based. Conditions: KCNQ2 opening; Max effect determined in % of the effect of 30 mM KCl. Here is the method: Chinese hamster ovary cells (CHO-K1) were stably transfected with human KCNQ2 inserted into the pCl-neo vector (Promega). Cells were plated at 2×10^5 cells/ml in 96-well plates in 100 μl media (MEM Alpha media, 10% FBS, 1% P/S, 1% L-Glu, and 1 mg/ml G418). At the time of plating the cells were furthermore loaded with 1 μCi/ml 86Rb over-night. On the subsequent day, the cells were washed with 3×50 μl assay buffer (HBSS+10 mM HEPES, pH 7.4) and incubated in 50 μl buffer with retigabine for 30 minutes at 37° C. Following this preincubation, the cell membrane was depolarized for 30 minutes at 37° C. with 15 mM KCl (final concentration) in assay buffer supplemented with the appropriate amount of compound to maintain drug concentration. The supernatant was removed and placed in pony-vials with 0.5 ml scintillation liquid and counted. The dose-dependent effect of the investigated compounds on the efflux of 86Rb through the hKCNQ2 channels were calculated according to the four parameter logistic equation: Y=Bottom+(Top-Bottom)/(1+10̂((LogEC50-X)*HillSlope)), where X is the logarithm of concentration, Y is the response, and HillSlope is the hill coefficient.
A representative selection of compounds of the invention were tested in the assay in addition to 6 comparative examples wherein 0 has been substituted with a 6-membered ring comprising up to two N atoms. Comparative 1-4 has been disclosed in WO 2009/127678 or WO 2009/127679 and comparative 5-6 are close analogues.

pEC50: −log10 of the molar value.

As to `Cc1cc2cc(CNC(=O)c3cc(C(C)C)no3)ccc2[nH]1` [Compound 34, 3-isopropyl-N-[(2-methyl-1H-indol-5-yl)methyl]isoxazole-5-carboxamide], the “NNR PAM activity in the oocyte assay compared with the flux assay” value in test [1] is given as “significantly better NNR PAM activity”. The compound also had a negative logarithm of the EC50 (pEC50) in test [2] of 6.05. Further, the Emax in test [3] turned out to be 1%.

The term pEC50 denotes the negative decadic logarithm of the EC50, by convention in mol/L. High values mean a low EC50, low ones a high EC50. By Emax is commonly meant the size of the effect at its maximum, as opposed to the concentration needed.
